# Assays:
# [1] = tested on: CCl4-induced mouse liver fibrosis model; assay: In vivo efficacy test in CCl4-induced mouse liver fibrosis model; design: species or system Male C57BL/6 mice; settings: oral gavage, day 1 to day 28 of CCl4 modeling, vs. model group (FIG. 14)
# Protocol: Male C57BL/6 mice, 22-27 grams in weight, purchased from Shanghai Lingchang Biotechnology Co., Ltd.
# Mice were transferred to the experimental area after one week of quarantine and adaptation. Animals were randomly divided into groups according to body weight and housed in cages at 5 mice per cage. 20% CCl4 solution with CCl4: Olive oil=1:4 was prepared by dissolving CCl4 in olive oil at a dose of 0.5 μl/g in mice. The mice of model group were orally three times a week for 4 weeks for molding, and the mice of normal control group was administrated only with the same volume of olive oil orally. The subject compounds were administered orally by oral gavage in a volume of 10 ml/kg per animal. The Day 1 of CCl4 modeling was initiated while dosing was initiated until day 28. At the end of the experiment, animal liver samples were collected for histopathological analysis.
# [2] = Solid stability test of crystal form A (high temperature, high humidity, strong light); assay type: physicochemical
# Source text: The samples were respectively placed in a high-temperature, high-humidity and strong-light storage container. The samples were taken at 5 and 10 days after placing, and the test results were compared with the initial test results at 0 days.
# [3] = tested on: MCD-induced mouse NASH model; assay: In vivo efficacy test in MCD-induced mouse NASH model; design: species or system C57BL/6 male mice; settings: dosing from week 5 of 8 weeks MCD feed, vs. model group (FIG. 13)
# Protocol: SPF grade C57BL/6 male mice, 22-25 grams in weight.
# MCD: methionine/choline deficient feed.
# Liver Propylene Analytical Reagents: hematoxylin dyeing liquid, eosin dyeing liquid and Picro sirius dyeing liquid.
# After the animals were adapted for one week in the facility, the normal control group was still fed with the normal feed, and other animals were fed with MCD feed instead. The drinking water didn't change and the feed was replaced once every 48 hours. Beginning at week 5, the remaining groups, except the normal control and model groups, were administrated with subject compound. The Experiment lasted for a total of 8 weeks. At the end of the experiment, animal liver samples were collected for histopathological analysis.
smiles,measurement,setting,value
Cc1cc(F)c(C(=O)Nc2cccc(-c3nnc4n3CCCC4)n2)cc1-n1cnc(C2CC2)c1 [Crystal form A],Effect on liver fibrosis (liver histopathology),[1]; 3 mg/Kg BID,significant effect on improving liver fibrosis
same,Effect on liver fibrosis (liver histopathology),[1]; 30 mg/Kg BID,significant effect on improving liver fibrosis
same,Crystal form,"[2]; High Humidity (25° C./Relative Humidity 90%, Open), Day 5",Crystal form A
same,Crystal form,"[2]; High Humidity (25° C./Relative Humidity 90%, Open), Day 10",Crystal form A
same,Crystal form,"[2]; High Temperature (60° C., Open), Day 5",Crystal form A
same,Crystal form,"[2]; High Temperature (60° C., Open), Day 10",Crystal form A
same,Crystal form,"[2]; Strong light (5000 lx, closed), Day 5",Crystal form A
same,Crystal form,"[2]; Strong light (5000 lx, closed), Day 10",Crystal form A
same,Solid stability (conclusion),"[2]; high temperature, high humidity and strong light",good stability
same,Crystal form,"[2]; initial, Day 0",Crystal form A
same,Effect on liver fibrosis (liver histopathology),[3]; 6 mg/Kg BID,significant effect on improving liver fibrosis
same,Effect on liver fibrosis (liver histopathology),[3]; 60 mg/Kg BID,significant effect on improving liver fibrosis

# — patent US11814382B2 (FUJIAN COSUNTER PHARMACEUTICAL CO., LTD., priority 2018, dated 2023)
